Laboratory results as given in the supplement of paper PMC11368000.

Key:
Settings in all cases: exposure time: 90 min
1368 [1] = donor line of iPSC-derived cardiomyocytes; experiment: POD (EC05) for increase in beat frequency (positive chronotrope) vs vehicle; higher = less potent (higher point of departure)
Outline: (§1)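 Cardiomyocytes derived from human iPSCs of 16 donors were grown 14 days in gelatin-coated 384-well plates, loaded 2 h with a fluorescent Ca2+ dye, then exposed for 90 min at 37 °C to final concentrations of 0.1, 1, 10 and 100 µM in 0.5% DMSO. A FLIPR Tetra recorded Ca2+ flux at 8 frames/s for 100 s before and after exposure. Points of departure for each donor were derived by hierarchical Bayesian Hill fitting of vehicle-normalised beat frequency, decay-to-rise ratio or peak frequency. The thresholds applied were a 5% change, or a 95% loss for peak frequency.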

1392 [2] = donor line of iPSC-derived cardiomyocytes; experiment: as above
Outline: as §1

1535 [3] = donor line of iPSC-derived cardiomyocytes; experiment: as above
Outline: as §1

1083 = donor line of iPSC-derived cardiomyocytes; experiment: POD (EC05) for increase in Ca2+ transient decay-to-rise ratio (QT prolongation) vs vehicle; higher = less potent (higher point of departure)
Experimental: (§2)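 Human iPSC-derived cardiomyocytes from 16 donors were exposed for 90 min at 37 °C to each PFAS at 0.1, 1, 10 and 100 µM in 0.5% DMSO, 384-well plates. Kinetic Ca2+ flux (FLIPR) and Hoechst nuclei counts were normalised to vehicle wells and fitted with a hierarchical Bayesian Hill model to give donor-specific PODs: EC05 for beat-rate increase or decrease and for decay-to-rise ratio increase (QT proxy), EC95 for peak-frequency loss (asystole), EC10 for total cell number loss. 0.03 µM is the lower bound.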

1118 = donor line of iPSC-derived cardiomyocytes; experiment: as above
Experimental: as §2

11235 = donor line of iPSC-derived cardiomyocytes; experiment: as above
Experimental: as §2

1309 = donor line of iPSC-derived cardiomyocytes; experiment: as above
Experimental: as §2

1368 [4] = experiment: as above
Experimental: as §2

1392 [5] = experiment: as above
Experimental: as §2

1434 = donor line of iPSC-derived cardiomyocytes; experiment: as above
Experimental: as §2

1518 = donor line of iPSC-derived cardiomyocytes; experiment: as above
Experimental: as §2

1531 = donor line of iPSC-derived cardiomyocytes; experiment: as above
Experimental: as §2

1535 [6] = experiment: as above
Experimental: as §2

1565 = donor line of iPSC-derived cardiomyocytes; experiment: as above
Experimental: as §2

20032 = donor line of iPSC-derived cardiomyocytes; experiment: as above
Experimental: as §2

20084 = donor line of iPSC-derived cardiomyocytes; experiment: as above
Experimental: as §2

30145 [7] = donor line of iPSC-derived cardiomyocytes; experiment: as above
Experimental: as §2

30171 = donor line of iPSC-derived cardiomyocytes; experiment: as above
Experimental: as §2

30145 [8] = experiment: POD (EC05) for increase in beat frequency (positive chronotrope) vs vehicle; higher = less potent (higher point of departure)
Outline: as §1

1516 = donor line of iPSC-derived cardiomyocytes; experiment: POD (EC05) for increase in Ca2+ transient decay-to-rise ratio (QT prolongation) vs vehicle; higher = less potent (higher point of departure)
Experimental: as §2

Q: With `NC(=O)C(F)(F)C(F)(F)C(F)(F)C(F)F` as the molecule, how does the POD vs vehicle 1368 [1] read?
A: Its POD vs vehicle is over 100 µM.

Q: What about the POD vs vehicle 1392 [2] of the same molecule?
A: Its POD vs vehicle is over 100 µM.

Q: What about the POD vs vehicle 1535 [3] of the same molecule?
A: The POD vs vehicle was over 100 µM.

Q: And the POD vs vehicle 1083?
A: Its POD vs vehicle is over 100 µM.

Q: And the POD vs vehicle 1118?
A: The POD vs vehicle was 7.19 µM.

Q: And the POD vs vehicle 11235?
A: Its POD vs vehicle is over 100 µM.

Q: And the POD vs vehicle 1309?
A: Its POD vs vehicle is over 100 µM.

Q: And the POD vs vehicle 1368 [4]?
A: The POD vs vehicle was over 100 µM.

Q: And the POD vs vehicle 1392 [5]?
A: The POD vs vehicle was over 100 µM.

Q: And the POD vs vehicle 1434?
A: Its POD vs vehicle is 0.543 µM.

Q: What about the POD vs vehicle 1518 of the same molecule?
A: Its POD vs vehicle is 0.19 µM.

Q: What about the POD vs vehicle 1531 of the same molecule?
A: The POD vs vehicle was 2.04 µM.

Q: What about the POD vs vehicle 1535 [6] of the same molecule?
A: Its POD vs vehicle is over 100 µM.

Q: And the POD vs vehicle 1565?
A: Its POD vs vehicle is 1.78 µM.

Q: What about the POD vs vehicle 20032 of the same molecule?
A: The POD vs vehicle was 0.131 µM.

Q: And the POD vs vehicle 20084?
A: Its POD vs vehicle is over 100 µM.

Q: And the POD vs vehicle 30145 [7]?
A: Its POD vs vehicle is over 100 µM.

Q: And the POD vs vehicle 30171?
A: Its POD vs vehicle is 17 µM.

Q: Which results are given for `OCC(O)CC(F)(F)C(F)(F)C(F)(F)C(F)(F)C(F)(F)C(F)(F)C(F)(F)C(F)(F)F` (configuration not stated) [1-(Perfluorofluorooctyl)propane-2,3-diol]?
A: POD vs vehicle 1368 [1]: > 100 µM; POD vs vehicle 1392 [2]: > 100 µM; POD vs vehicle 1535 [3]: > 100 µM; POD vs vehicle 30145 [8]: > 100 µM; POD vs vehicle 1083: > 100 µM; POD vs vehicle 1118: > 100 µM; POD vs vehicle 11235: > 100 µM; POD vs vehicle 1309: > 100 µM; POD vs vehicle 1368 [4]: > 100 µM; POD vs vehicle 1392 [5]: > 100 µM; POD vs vehicle 1434: > 100 µM; POD vs vehicle 1516: > 100 µM; POD vs vehicle 1518: > 100 µM; POD vs vehicle 1531: > 100 µM; POD vs vehicle 1535 [6]: > 100 µM; POD vs vehicle 1565: > 100 µM; POD vs vehicle 20032: > 100 µM; POD vs vehicle 20084: > 100 µM; POD vs vehicle 30145 [7]: > 100 µM; POD vs vehicle 30171: > 100 µM

Q: For `CC(O)C(F)(F)C(F)(F)F` (configuration not stated) [1-Pentafluoroethylethanol], which POD vs vehicle 1368 [1] is on record?
A: The POD vs vehicle was over 100 µM.

Q: And the POD vs vehicle 1392 [2]?
A: The POD vs vehicle was over 100 µM.

Q: What about the POD vs vehicle 1535 [3] of the same molecule?
A: Its POD vs vehicle is over 100 µM.

Q: What about the POD vs vehicle 30145 [8] of the same molecule?
A: Its POD vs vehicle is over 100 µM.

Q: What about the POD vs vehicle 1083 of the same molecule?
A: The POD vs vehicle was over 100 µM.

Q: What about the POD vs vehicle 1118 of the same molecule?
A: Its POD vs vehicle is over 100 µM.

Q: And the POD vs vehicle 11235?
A: The POD vs vehicle was over 100 µM.

Q: What about the POD vs vehicle 1309 of the same molecule?
A: Its POD vs vehicle is over 100 µM.

Q: What about the POD vs vehicle 1368 [4] of the same molecule?
A: Its POD vs vehicle is over 100 µM.

Q: And the POD vs vehicle 1392 [5]?
A: The POD vs vehicle was over 100 µM.

Q: What about the POD vs vehicle 1434 of the same molecule?
A: Its POD vs vehicle is over 100 µM.

Q: What about the POD vs vehicle 1516 of the same molecule?
A: Its POD vs vehicle is over 100 µM.

Q: And the POD vs vehicle 1518?
A: Its POD vs vehicle is over 100 µM.

Q: What about the POD vs vehicle 1531 of the same molecule?
A: Its POD vs vehicle is over 100 µM.

Q: And the POD vs vehicle 1535 [6]?
A: The POD vs vehicle was over 100 µM.

Q: What about the POD vs vehicle 1565 of the same molecule?
A: The POD vs vehicle was over 100 µM.

Q: And the POD vs vehicle 20032?
A: Its POD vs vehicle is over 100 µM.

Q: What about the POD vs vehicle 20084 of the same molecule?
A: The POD vs vehicle was over 100 µM.

Q: What about the POD vs vehicle 30145 [7] of the same molecule?
A: The POD vs vehicle was over 100 µM.

Q: And the POD vs vehicle 30171?
A: Its POD vs vehicle is over 100 µM.

Q: What does the source list for `O=C(O)C(F)(F)C(F)(F)C(F)F` [2,2,3,3,4,4-Hexafluorobutanoic_acid]?
A: POD vs vehicle 1368 [1]: > 100 µM; POD vs vehicle 1392 [2]: > 100 µM; POD vs vehicle 1535 [3]: > 100 µM; POD vs vehicle 1083: > 100 µM; POD vs vehicle 1118: > 100 µM; POD vs vehicle 11235: > 100 µM; POD vs vehicle 1309: > 100 µM; POD vs vehicle 1368 [4]: > 100 µM; POD vs vehicle 1392 [5]: > 100 µM; POD vs vehicle 1434: > 100 µM; POD vs vehicle 1531: > 100 µM; POD vs vehicle 1535 [6]: > 100 µM; POD vs vehicle 1565: > 100 µM; POD vs vehicle 20032: > 100 µM; POD vs vehicle 20084: > 100 µM; POD vs vehicle 30145 [7]: > 100 µM; POD vs vehicle 30171: > 100 µM

Q: With `NC(O)(C(F)(F)F)C(F)(F)F` [2-Aminohexafluoropropan-2-ol] as the molecule, how does the POD vs vehicle 1368 [1] read?
A: The POD vs vehicle was over 100 µM.

Q: And the POD vs vehicle 1392 [2]?
A: The POD vs vehicle was over 100 µM.

Q: And the POD vs vehicle 1535 [3]?
A: Its POD vs vehicle is over 100 µM.

Q: What about the POD vs vehicle 1083 of the same molecule?
A: The POD vs vehicle was over 100 µM.

Q: What about the POD vs vehicle 1118 of the same molecule?
A: Its POD vs vehicle is over 100 µM.

Q: And the POD vs vehicle 11235?
A: The POD vs vehicle was over 100 µM.

Q: And the POD vs vehicle 1309?
A: Its POD vs vehicle is over 100 µM.

Q: And the POD vs vehicle 1368 [4]?
A: The POD vs vehicle was over 100 µM.

Q: What about the POD vs vehicle 1392 [5] of the same molecule?
A: Its POD vs vehicle is over 100 µM.

Q: What about the POD vs vehicle 1434 of the same molecule?
A: Its POD vs vehicle is over 100 µM.

Q: What about the POD vs vehicle 1531 of the same molecule?
A: Its POD vs vehicle is over 100 µM.

Q: And the POD vs vehicle 1535 [6]?
A: Its POD vs vehicle is over 100 µM.

Q: What about the POD vs vehicle 1565 of the same molecule?
A: Its POD vs vehicle is over 100 µM.

Q: What about the POD vs vehicle 20032 of the same molecule?
A: The POD vs vehicle was over 100 µM.

Q: And the POD vs vehicle 20084?
A: The POD vs vehicle was over 100 µM.

Q: And the POD vs vehicle 30145 [7]?
A: The POD vs vehicle was over 100 µM.

Q: What about the POD vs vehicle 30171 of the same molecule?
A: Its POD vs vehicle is over 100 µM.
